What was measured:
hiPSC-CMs = experiment: Confocal microscopy of cellular uptake in hiPSC-CMs; assay type: cell-based, human; conditions: for interaction with the cell membrane of hiPSC-CMs: confocal microscopy; for cellular uptake / localization in hiPSC-CMs: eGFP loaded coacervates (100 nM eGFP), 30 min, 37 °C, confocal
Experimental: Stem cell-derived cardiomyocytes and confocal microscopy
Wild type hiPSCs (WT iPSC 11) were received from the Genome Engineering and Stem Cell Center at Washington University School of Medicine. hiPSCs were cultured in mTeSR Plus […]
medium ([…] Technologies, USA) on 6-well plates coated with Matrigel (1:100, Corning) and grown at 37 °C with 5% CO2. Cells were grown to 80–90% confluency and then passaged as clusters using Versene (Thermo Scientific, USA) into 6-well plates for hiPSC maintenance and […]
into 24-well plates for hiPSC differentiation. Once hiPSCs reached 90% confluence, they were differentiated into cardiomyocytes using small-molecule manipulation of Wnt signaling 10. Non-cardiomyocytes were removed via lactate purification on days 20 and 22 before replating singularized hiPSC cardiomyocytes (hiPSC-CMs) at 40,000 cells per 35-mm glass-bottom dish. hiPSC-CMs were treated with enantiomeric leucine or valine coacervates loaded with eGFP protein (Novus Biologicals, Catalog number: NBP2-34923; 50 μL, final concentration of 100 nM eGFP) for 30 min at 37°C. Samples were fixed with 2% paraformaldehyde (PFA) and three PBS washes (10 min at RT). The cell membrane was stained with wheat germ agglutinin (WGA; Fisher Scientific, Catalog number: W32466; 0.25 μL/mL) conjugated to Alexa Fluor 647 (10 min at RT), followed by three PBS washes (5 minutes at RT). Confocal micrographs of singular hiPSC-CMs were acquired using a Leica Sp8 Lightning single-photon confocal microscope […]
numerical aperture oil immersion objective, two HyD GaAsP detectors, and two high-sensitivity photomultiplier tube detectors. Images were collected as z-stacks (presented as top or bottom view, and single plane) and by Nyquist sampling (or greater) as previously described 11.
All animal experiments were conducted under approved protocols by the Institutional Animal Care and Use Committee (IACUC) at Washington University in St Louis. Femoral and tibial bone marrow from C57BL/6 mice were collected and RBCs lysed using ACK buffer. The cells were plated at 5×10^6 cells per petri dish (150 mm) and differentiated for 7–9 days in complete RPMI-1640 medium (containing 10% heat-inactivated FBS), 55 µM β-mercaptoethanol, 1 mM sodium pyruvate, 10 mM HEPES, 1× MEM non-essential amino acids, 20 ng/mL GM-CSF, 10

[1] = test system: BMDCs overlaid with DOBW cells; experiment: In vitro antigen presentation assay, MHC class II (BMDCs + DOBW hybridoma, IL-2 ELISA); conditions: DOBW overlay; for IL-2 levels at 4 °C compared to 37 °C controls: OVA-loaded coacervates, DCs at 4 °C, ELISA
Experimental: To test internalization mechanisms, we utilized in vitro antigen presentation assays (Fig. 4A). Here, bone marrow-derived dendritic cells (BMDCs) are treated with coacervates loaded with the model antigen ovalbumin (OVA). […] Secretion of IL-2 in response to peptide-MHC recognition is an indirect measure of coacervate uptake and can be quantified using ELISA (enzyme-linked immunosorbent assay) (Fig. 4A). […] We next used pharmacological inhibitors of endocytic mechanisms to explore mechanisms of cell entry (Fig. 4E). BMDCs were treated with inhibitors of clathrin-mediated endocytosis (chlorpromazine, CPZ),[58] dynamin-dependent endocytosis (dynasore, Dyn),[59] macropinocytosis (wortmannin, Wort),[60] cholesterol (methyl β-CD),[61] and IPA3 the regulatory domain of PAK1 (IPA-3)[62] for one h prior to antigen presentation assays.
Cellular uptake and antigen presentation assays
Uptake of coacervates by BMDCs was measured using in vitro antigen presentation assays.
BMDCs were plated in 96-well round-bottom plates (1×10^5 cells/well) and maintained at 4°C or
treated with 10 mM deoxy glucose and 10 mM sodium azide in PBS (ATP depletion) for 1 h prior
to addition of OVA-loaded coacervates. Final OVA concentration was 1 g/mL for time-
dependent measurements and 10 g/mL for comparison between enantiomers. Cells maintained at
37°C and complete RPMI media served as controls. Soluble OVA and PBS treated cells were used as controls for antigen delivery. Following treatment (2 h, 4 h, 24 h, 48 h, or 72 h), BMDCs were
washed to remove extracellular coacervates and DOBW hybridoma cells (1:5, DC: DOBW) were
overlaid for 16 h. The cells were then centrifuged at 300 × g for 5 min, and the supernatant was
collected for IL-2 quantitation by ELISA according to the manufacturer protocol (Biotechne,
#DY402). The amount of IL-2 produced under each condition was measured.
Inhibition of coacervate uptake was measured by adding the inhibitors 1 h
prior to coacervate treatment for 24 h followed by hybridoma overlay and IL-2 measurements.

[2] = test system: CD55 expression in A549 cells; experiment: CRISPR/Cas9 RNP delivery, CD55 knockdown by flow cytometry; assay type: cell-based; conditions: 3 days, enantiomeric coacervates
Experimental: complexed with lipofectamine 2000 (3.2 µL) served as controls. GFP expression was assessed qualitatively after 96 h using a Lionheart FX automated microscope (BioTek Instruments, Inc.).
We employed TrueCut Cas9 protein for the knockout of CD55 gene using CRISPR technology, aided with chiral (GHGXY)4 peptide coacervates. The transfection of the Cas9 RNPs (protein + gRNA) was done according to manufacturer’s protocol (Invitrogen). Briefly, A549 cells were cultured in complete DMEM media (supplemented with 10% FBS and 5% Pen Strep) in T-75 flask till full confluency. Cells were then plated at a concentration of 2×10^4 cells/mL in 24 well […]
plates in DMEM media for 24 h. […]
confluent. For positive control, we mixed the TrueCutTM Cas9 protein/sgRNA in Opti-MEM media (17.8 μL) at a concentration of 12.50 μg (75 pmol; Stock 0.5 mg/mL) and 2.4 μg (75 pmol; Stock 1 nmol) for protein and sgRNA respectively, containing 50 μL LipofectamineTM Cas 9 PlusTM reagent (Total Volume: 100 μL) in a RNAse -free microcentrifuge tube. […]
(DAF) Antibody (anti-human; miltenyibiotec Cat#130-126-382). […] Data were analyzed with FlowJo version 10. […] was quantified as the percentage CD55+ cells, considering untreated cells as the negative control and Lipofectamine treated ones as the positive control. […]

[3] = Dynamic light scattering (DLS) droplet size; assay type: physicochemical; conditions: 1 mM peptide, 1× PBS, pH 7.4; mean of 3 measurements with 14 scans each; identical for each pair of enantiomers
Experimental: Optical microscopy and dynamic light scattering (DLS) […]
Coacervate size was measured using 1 mM
peptide solutions (1×PBS, pH 7.4) on a ZEN 3600 Zetasizer (Malvern Instruments, UK) using
DLS-Zen 0040 specialized cuvettes. The results were reported as the means of three
measurements, with 14 scans for each measurement. […]

Substance | interaction with the cell membrane of hiPSC-CMs (hiPSC-CMs) | cellular uptake / localization in hiPSC-CMs (hiPSC-CMs) | IL-2 levels at 4 °C compared to 37 °C controls [1] | IL-2 production compared to (GHGLY)4 at the same antigen dose ([1]; coacervates loaded with 1 μM OVA, pre-treatment 2-72 h) | delivery of Cas9 RNP complex / decrease in CD55 expression on the cell surface [2] | droplet size (DLS) [3]
(GHGVY)4 [GV 20] | this behavior was not observed | confirmed their localization within the cells | significantly lower IL-2 levels | significantly higher | successfully delivered the RNP complex | ~1.0 μm
(GHGLY)4 [GL 20] | interacted with and traversed the cell membrane | confirmed their localization within the cells | significantly lower IL-2 levels |  | not highly effective | ~1.8 μm
